This passage reports IC50 results from ChEMBL document CHEMBL1137587, “MCH-R1 antagonists based on an arginine scaffold: SAR studies on the amino-terminus” (Bioorg Med Chem Lett, 2007).

The target of this experiment is Melanin-concentrating hormone receptor 1 (Homo sapiens, UniProt Q99705). Put plainly: Functional antagonism of MCH-R1 expressed in HEK293 cells. It counts as cell-based.
Chain of Melanin-concentrating hormone receptor 1 (Q99705 whole entry): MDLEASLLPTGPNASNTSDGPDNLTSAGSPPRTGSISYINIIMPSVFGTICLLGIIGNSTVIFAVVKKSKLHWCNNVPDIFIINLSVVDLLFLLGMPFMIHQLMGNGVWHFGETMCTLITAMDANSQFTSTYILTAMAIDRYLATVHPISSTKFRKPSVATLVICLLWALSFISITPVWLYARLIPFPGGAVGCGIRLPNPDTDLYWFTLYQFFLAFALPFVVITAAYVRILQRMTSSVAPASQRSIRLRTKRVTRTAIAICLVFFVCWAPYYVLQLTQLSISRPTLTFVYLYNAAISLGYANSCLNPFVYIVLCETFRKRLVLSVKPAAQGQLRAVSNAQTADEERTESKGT
One may read the IC50 as the concentration that gives 50% inhibition. Take `COc1ccc2[nH]c(C(=O)N[C@H](CCCNC(=N)N)C(=O)NCc3ccc(C(F)(F)F)cc3)cc2c1`: the IC50 is 78 nM.

`N=C(N)NCCC[C@@H](NC(=O)c1cnc2ccccc2c1)C(=O)NCc1ccc(C(F)(F)F)cc1` registered an IC50 of 96 nM.

`N=C(N)NCCC[C@@H](NC(=O)C1c2ccccc2-c2ccccc21)C(=O)NCc1ccc(C(F)(F)F)cc1`: the midpoint of inhibition, the IC50, lay at 5 nM.

In the case of `N=C(N)NCCC[C@@H](NC(=O)c1ccnc2ccccc12)C(=O)NCc1ccc(C(F)(F)F)cc1`, the IC50 was 1030 nM.

For `N=C(N)NCCC[C@@H](NC(=O)C1c2ccccc2Oc2ccccc21)C(=O)NCc1ccc(C(F)(F)F)cc1`, the IC50 came out at 4 nM.

In the case of `N=C(N)NCCC[C@@H](NC(=O)c1cc2ccccc2s1)C(=O)NCc1ccc(C(F)(F)F)cc1`, the IC50 is 45 nM.

The compound `N=C(N)NCCC[C@@H](NC(=O)c1ccc2ccccc2n1)C(=O)NCc1ccc(C(F)(F)F)cc1` registered an IC50 of 904 nM.

`N=C(N)NCCC[C@@H](NC(=O)c1cc2ccccc2[nH]1)C(=O)NCc1ccc(C(F)(F)F)cc1` displayed an IC50 of 20 nM.

For `N=C(N)NCCC[C@@H](NC(=O)c1csc2ccccc12)C(=O)NCc1ccc(C(F)(F)F)cc1`, the IC50 stood at 952 nM.

`N=C(N)NCCC[C@@H](NC(=O)c1ccc2ccccc2c1)C(=O)NCc1ccc(C(F)(F)F)cc1` gave an IC50 of 212 nM.

In turn, `N=C(N)NCCC[C@@H](NC(=O)C(c1ccccc1)c1ccccc1)C(=O)NCc1ccc(C(F)(F)F)cc1` had an IC50 of 112 nM.

On to `N=C(N)NCCC[C@@H](NC(=O)c1cc2ccccc2cn1)C(=O)NCc1ccc(C(F)(F)F)cc1`, for which the IC50 worked out at 1810 nM.

`N=C(N)NCCC[C@@H](NC(=O)Cc1cccc2ccccc12)C(=O)NCc1ccc(C(F)(F)F)cc1` came in with an IC50 of 243 nM.

Consider `N=C(N)NCCC[C@@H](NC(=O)c1cc2ccccc2o1)C(=O)NCc1ccc(C(F)(F)F)cc1`, for which the IC50 amounted to 313 nM.

Turning to `N=C(N)NCCC[C@@H](NC(=O)c1ccc(F)c2ccccc12)C(=O)NCc1ccc(C(F)(F)F)cc1`, the IC50 was determined as 311 nM.

`N=C(N)NCCC[C@@H](NC(=O)c1cc2cc(F)ccc2[nH]1)C(=O)NCc1ccc(C(F)(F)F)cc1` displayed an IC50 of 25 nM.

`N=C(N)NCCC[C@@H](NC(=O)Cc1cc2ccccc2[nH]1)C(=O)NCc1ccc(C(F)(F)F)cc1` came in with an IC50 of 512 nM.

`COc1cccc2cc(C(=O)N[C@H](CCCNC(=N)N)C(=O)NCc3ccc(C(F)(F)F)cc3)oc12` had an IC50 of 622 nM.

Consider `N=C(N)NCCC[C@@H](NC(=O)C1c2ccccc2Cc2ccccc21)C(=O)NCc1ccc(C(F)(F)F)cc1`, for which half-maximal inhibition (IC50) required 763 nM.

As to `N=C(N)NCCC[C@@H](NC(=O)Cc1csc2ccccc12)C(=O)NCc1ccc(C(F)(F)F)cc1`, inhibition was half-maximal at 1010 nM (IC50).

As for `N=C(N)NCCC[C@@H](NC(=O)c1cccc2ccccc12)C(=O)NCc1ccc(C(F)(F)F)cc1`, the IC50 came to 1800 nM.

Regarding `COc1ccc2cc(C(=O)N[C@H](CCCNC(=N)N)C(=O)NCc3ccc(C(F)(F)F)cc3)ccc2c1`, the midpoint of inhibition, the IC50, lay at 443 nM.
